The values that follow come from US20060035810A1, “Regulation of ins(3456)p4 signalling by a reversible kinase phosphatase and methods and compositions related thereto” (priority 2002, published 2006).

For assay [1], the system named is insulin granules in pancreatic β-cells. In words: Insulin granule acidification, LSG fluorescence with patch-clamp and confocal imaging. The assay is classed as cell-based, mouse. As to conditions: DIDS 100 μM in bath solution 30 min prior to patching. The procedure: FIG. 6. Ins(3,4,5,6)P4 inhibits acidification of insulin granules in pancreatic β-cells. FIG. 6A, Representative time-courses for intragranular acidification, monitored by increased fluorescence of LSG before and after establishment of the standard whole-cell configuration (see arrow) and the effect of perfusion of intracellular medium (containing 0.4 μM [Ca^2+]free except where “no calcium” is indicated; see Methods) plus either 0 (“control”), 1 or 10 μM Ins(3,4,5,6)P4. FIG. 6B, Mean (±SE) fluorescence changes (n-5-11), during the 60 s that followed establishment of the standard whole-cell configuration, for cells perfused with inositol phosphates as indicated at the base of the bar graph. Where indicated, DIDS (100 μM) were added to the bath solution 30 min prior to patching the cells. Statistical significance was evaluated by Student's unpaired t-test (* P<0.01).
The inositol phosphates used in this study were all purchased from CellSignals Inc (Lexington, Ky.). Insulin granule pH were monitored by combining the patch-clamp technique with confocal imaging. Pancreatic β-cells, isolated and cultured on glass coverslips for 2-24 h, were voltage clamped at −70 mV, as previously described (B9). LysoSensor-Green™ DND-189 (1 μM; Molecular Probes, Leiden, The Netherlands) was added during the last 30 min of cell culture and was also included in the extracellular buffer (B9) that continuously perfused the experimental chamber. All LSG experiments were performed at 20° C. to prevent exocytosis that otherwise interfered with the optical measurements (15). LSG fluorescence was excited using the 488 nm-line of a Zeiss 510 confocal microscope. The emitted light was collected with a 63×/1.3 NA oil objective and a >505 nm filter. Laser scanning was performed with low pixel resolution (128×128) and with 6 s intervals to minimize photo-bleaching. After gigaseal formation, it was ascertained that LSG fluorescence was stable for at least 30 s before the experiment commenced. The intracellular electrode solution contained: 125 mM K-glutamate, 10 mM KCl, 1 0 mM NaCl, 1 mM MgCl2, 5 mM HEPES, 3 mM Mg-ATP, 0.1 mM cAMP, 10 mM EGTA and 7 mM CaCl2 (˜0.4 μM free [Ca^2+]I; pH 7.2 with KOH). In some experiments, marked “no calcium”, there was no added Ca^2+, and the concentration of EGTA was 50 μM. Whole-cell capacitance measurements (at 33° C.) were made with the cells clamped at −70 mV, and the standard whole-cell configuration was established at t=0. Capacitance recordings were made using an EPC-7 patch-clamp amplifier equipped with the software Pulse (version 8.4 and later) and the X-chart extension (HEKA Elektronik, Lambrecht/Pfalz, Germany) (B9).
For orientation: Patch clamp records ionic current or voltage across a cell membrane.

For assay [2] the test system is unchanged. Description: CCCP-mediated de-acidification of insulin granules, LSG fluorescence. The assay is classed as cell-based, mouse. The conditions noted are these: DIDS blockade of Cl− conductance, CCCP. The procedure:
FIG. 7A, Representative confocal images of LSG fluorescence immediately before (zero) and 60 s after perfusion of cells with intracellular buffer supplemented with 100 μM of the protonophore, CCCP, in the absence or presence of 10 μM Ins(3,4,5,6)P4. FIG. 7B, Representative time-courses for changes in LSG-fluorescence ([F/F0] as % of zero time) immediately after establishing a standard whole-cell configuration as in panel A, with intracellular medium (containing 0.4 μM [Ca^2+]free except where “no calcium” is indicated; see Methods) plus 100 μM CCCP, together with either 0 (“control”) or 10 μM Ins(3,4,5,6)P4. FIG. 7C, Mean (±SE) fluorescence changes (n=4-6), during the 60 s that followed establishment of the standard whole-cell configuration, for cells perfused with intracellular medium supplemented with inositol phosphates as indicated at the base of the bar graph ([…]).
The inositol phosphates used in this study were all purchased from CellSignals Inc (Lexington, Ky.). Insulin granule pH were monitored by combining the patch-clamp technique with confocal imaging. Pancreatic β-cells, isolated and cultured on glass coverslips for 2-24 h, were voltage clamped at −70 mV, as previously described (B9). LysoSensor-Green™ DND-189 (1 μM; Molecular Probes, Leiden, The Netherlands) was added during the last 30 min of cell culture and was also included in the extracellular buffer (B9) that continuously perfused the experimental chamber. All LSG experiments were performed at 20° C. to prevent exocytosis that otherwise interfered with the optical measurements (15). LSG fluorescence was excited using the 488 nm-line of a Zeiss 510 confocal microscope. The emitted light was collected with a 63×/1.3 NA oil objective and a >505 nm filter. Laser scanning was performed with low pixel resolution (128×128) and with 6 s intervals to minimize photo-bleaching. After gigaseal formation, it was ascertained that LSG fluorescence was stable for at least 30 s before the experiment commenced. The intracellular electrode solution contained: 125 mM K-glutamate, 10 mM KCl, 1 0 mM NaCl, 1 mM MgCl2, 5 mM HEPES, 3 mM Mg-ATP, 0.1 mM cAMP, 10 mM EGTA and 7 mM CaCl2 (˜0.4 μM free [Ca^2+]I; pH 7.2 with KOH). In some experiments, marked “no calcium”, there was no added Ca^2+, and the concentration of EGTA was 50 μM. Whole-cell capacitance measurements (at 33° C.) were made with the cells clamped at −70 mV, and the standard whole-cell configuration was established at t=0. Capacitance recordings were made using an EPC-7 patch-clamp amplifier equipped with the software Pulse (version 8.4 and later) and the X-chart extension (HEKA Elektronik, Lambrecht/Pfalz, Germany) (B9). […]

The target in assay [3] is T1, Recombinant human Ins(3,4,5,6)P4 1-kinase (Homo sapiens, UniProt Q13572).
T1 construct: made in house; host or cells: E. coli
T1 sequence (Q13572 1-414): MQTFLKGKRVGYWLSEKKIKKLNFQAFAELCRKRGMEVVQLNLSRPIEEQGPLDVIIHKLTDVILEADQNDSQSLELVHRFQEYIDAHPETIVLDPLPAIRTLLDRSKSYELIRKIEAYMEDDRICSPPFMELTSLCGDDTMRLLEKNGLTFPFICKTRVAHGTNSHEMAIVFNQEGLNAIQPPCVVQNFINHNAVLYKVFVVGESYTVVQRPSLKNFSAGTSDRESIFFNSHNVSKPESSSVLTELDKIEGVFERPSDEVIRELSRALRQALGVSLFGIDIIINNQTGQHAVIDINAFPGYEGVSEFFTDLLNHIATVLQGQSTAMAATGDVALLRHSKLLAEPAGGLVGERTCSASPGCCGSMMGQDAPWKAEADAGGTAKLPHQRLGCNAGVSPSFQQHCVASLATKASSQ
Description: Inositol phosphate kinase activity assay (HPLC). The assay is classed as biochemical. On the procedure: (§1) Inositol phosphate phosphatase activity was assayed in buffer containing 100 mM KCl, 20 mM HEPES pH 7.2, 5 mM ADP, 6 mM MgSO4, 0.3 mg/ml bovine serum albumin. Assays were acid-quenched, neutralized and analyzed by HPLC using a Synchropak Q100 columm (Caffrey et al., “Expanding Coincident Signaling by PTEN through its Inositol 1,3,4,5,6-Pentakisphosphate 3-phosphatase Activity,” FEBS Lett 499: 6-10 (2001)); 1 ml fractions were collected for 70 min., followed by 0.5 ml fractions. Inositol phosphate kinase activity was assayed in buffer containing 100 mM KCl, 20 mM HEPES pH 7.2, 5 mM ATP, 10 mM phosphocreatine, 6 mM MgSO4, 10 μg/ml creatine phosphokinase (Calbiochem), 0.3 mg/ml bovine serum albumin. Some assays were acid-quenched and analyzed by HPLC using a Synchropak Q100 column. Other reactions were heat-inactivated (95° C., 3 min) and analyzed by a metal dye detection, HPLC method (Mayr, “A novel metal-dye detection sysytem permits picomolar-range h.p.l.c. analysis of inositol polyphosphates from non-radioactively labelled cell or tissue specimens,” Biochem J 254: 585-591 (1988); Adelt et al., “Enzyme-assisted total synthesis of the optical antipodes D-myo-inositol 3,4,5-trisphosphate and D-myo-inositol 1,5,6-trisphosphate: aspects of their structure-activity relationship to biologically active inositol phosphates,” J Med Chem 42: 1262-1273 (1999)).
Activity of 3.4 ug of inositol 3,4,5,6-tetrakisphosphate 1-kinase was assayed for 4 hr. at 37° C. in 200 μl buffer containing 100 mM KCl, 20 mM HEPES pH 7.2, 5 mM ATP, 10 mM phosphocreatine, 6 mM MgSO4, 10 μg/ml creatine phosphokinase (Calbiochem), 0.3 mg/ml bovine serum albumin and 50 uM of either inositol 3,4,5-trisphosphate, 4,5,6-trisphosphate or inositol 3,5,6-trisphosphate. Reactions were heat-inactivated (95° C., 3 min) and analyzed by a metal dye detection, HPLC method.
[…] (Manassas, Va.) supplied the CFPAC-1 cells and T84 cells. Recombinant human Ins(3,4,5,6)P4 1-kinase was expressed in E. coli and purified (Yang et al., “Multitasking in Signal Transduction by a Promiscuous Human Ins(3,4,5,6)P4 1-Kinase/Ins(1,3,4)P3 5/6-Kinase,” Biochem J 351: 551-555 (2000)). Non-radiolabeled Ins(1,3,4)P3 and Ins(1,3,4,5,6)P5 were purchased from CellSignals Inc (Lexington, Ky.). The details of the synthesis of non-radiolabeled Ins(3,4,5)P3, Ins(3,5,6)P3, Ins(4,5,6)P3 and Ins(3,4,6)P3 (as sodium salts) will be published separately by S.-K. C. Ins(3,4,6)P3 was also prepared by a different synthetic route (Mills et al., “Synthesis of D- and L-myo-inositol 1,4,6-trisphosphate, regioisomers of a ubiquitous second messenger,” J Org Chem 61: 8980-8987 (1996)). [^3H]Ins(1,3,4,5,6)P5 was prepared as previously described (Zhang et al., “The Transcriptional Regulator, Arg82, is a Hybrid Kinase with both Monophosphoinositol- and Diphosphoinositol-Polyphosphate Synthase Activity,” FEBS Lett 494: 208-212 (2001)). [^3H]Ins(1,3,4)P3 was prepared from [^3H]Ins(1,3,4,5)P4 (New England Nuclear) using recombinant Ins(1,4,5)P3/Ins(1,3,4,5)P4 5-phosphatase (Erneux et al., “Production of recombinant human brain type I inositol-1,4,5-trisphosphate 5-phosphatase in Escherichia coli. Lack of phosphorylation by protein kinase C,” Eur J Biochem 234: 598-602 (1995)). [^3H]Ins(1,3,4)P3 was converted to [^3H]Ins(1,3,4,6)P4 using Ins(1,3,4)P3 6-kinase activity (Yang et al., “Multitasking in Signal Transduction by a Promiscuous Human Ins(3,4,5,6)P4 1-Kinase/Ins(1,3,4)P3 5/6-Kinase,” Biochem J 351: 551-555 (2000)). [^3H]Ins(3,4)P2 was prepared by alkaline phosphatase attack on [^3H]Ins(1,3,4)P3 in 20 mM glycine (pH 9.0 with KOH). [^3H]Ins(1,4)P2 was purchased from New England Nuclear.

The target in assay [4] is T2, Ins(1,3,4,5,6)P5 1-phosphatase activity of Ins(3,4,5,6)P4 kinase (Homo sapiens, UniProt Q13572).
T2 construct: made in house; host or cells: E. coli
T2 sequence (Q13572 1-414): T1 sequence (Q13572 1-414)
In words: Inositol phosphate phosphatase activity assay with ADP (HPLC). Type of assay: biochemical. As to conditions: 5 mM ADP, trace amounts of substrate. The procedure: Ins(3,4,5,6)P4 kinase (0.4 μg) was incubated for 30 min in 100 μl phosphatase assay buffer (see Methods) either with (closed circles) or without (open circles) 5 mM ADP plus trace-amounts of either [^3H]Ins(1,3,4,5,6)P5 (panel A) [^3H]Ins(1,3,4,6)P4 (panel B), or [^3H]Ins(1,3,4,5)P4 (panel C). Samples were analyzed by HPLC (see Methods). The elution positions of Ins(1,3,4)P3 and Ins(3,4,5,6)P4 were verified with genuine standards. The elution positions of Ins(1,3,4,6)P4 (106 min, panel B) and of Ins(1,3,4,5)P4 (110 min, panel C) exclude these as products of InsP5 dephosphorylation (panel A).
Additional incubations were performed with 5 μM [^3H]Ins(1,3,4)P3 (approx. 1200 d.p.m.) plus either no Ins(1,3,4,5,6)P5 (open circles) or 5 μM non-radiolabeled Ins(1,3,4,5,6)P5 (closed circles); these reactions were assayed by HPLC (Synchropak Q100 column) and the InsP4 region of the chromatogram is shown in Panel B.
as §1

`O=S(=O)(O)c1cc(N=C=S)ccc1C=Cc1ccc(N=C=S)cc1S(=O)(=O)O` [DIDS, 4,4′-diisothiocyanostilbene-2,2′-disulfonic acid]: in assay [1], the “effect on granule acidification” value was “inhibited”. Moreover, in assay [2], the “effect on loss of H+ from the granules” value is reported as “inhibited”.

Turning to `O=P(O)(O)O[C@@H]1C(O)[C@H](OP(=O)(O)O)[C@@H](OP(=O)(O)O)C(O)[C@H]1OP(=O)(O)O` (stereo partly shown) [Ins(1,3,4,6)P4], the “whether the enzyme phosphorylates the inositol phosphate” value in assay [3] is recorded as “does not phosphorylate”. Further, in assay [4], the “product of ADP-dependent dephosphorylation” value is given as “dephosphorylated to Ins(1,3,4)P3”.
